In patent publication US6683183B2, “Pyridotriazines and pyridopyridazines” (Warner-Lambert Company, priority 2000, dated 2004):

Assays:
FGFR-1 = molecular target: T1, FGFR-1 (Homo sapiens, UniProt P11362); experiment: FGFR tyrosine kinase inhibition (DELFIA); assay type: biochemical; details: kinase domain at 20 nM
T1 construct: The kinase domains from FGFR-1, VEGFR-2, Lck, and PDGF were purified from baculoviral vectors expression systems; made in house; host or cells: baculovirus expression system (insect cells)
T1 sequence (P11362 478-767 limits assumed): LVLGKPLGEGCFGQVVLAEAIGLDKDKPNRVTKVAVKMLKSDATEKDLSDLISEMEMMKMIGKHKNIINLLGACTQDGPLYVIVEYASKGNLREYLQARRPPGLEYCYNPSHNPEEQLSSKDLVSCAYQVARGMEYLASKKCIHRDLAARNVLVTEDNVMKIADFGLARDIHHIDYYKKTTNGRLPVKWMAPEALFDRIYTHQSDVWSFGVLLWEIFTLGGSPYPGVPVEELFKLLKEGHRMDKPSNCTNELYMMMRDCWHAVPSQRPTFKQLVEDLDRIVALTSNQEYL
Description: (§1) Full-length cDNAs for the mouse PDGF-β and human FGF-1 (flg) receptor tyrosine kinases were obtained from J. Escobedo and prepared as described in J. Biol. Chem., 1991;262:1482-1487. PCR primers were designed to amplify a fragment of DNA that codes for the intracellular tyrosine kinase domain. The fragment was inserted into a baculovirus vector, cotransfected with AcMNPV DNA, and the recombinant virus isolated. SF9 insect cells were infected with the virus to overexpress the protein, and the cell lysate was used for the assay. […] Filters were washed three times with 15% TCA containing 100 mM sodium pyrophosphate, and the radioactivity retained on the filters counted in a Wallac 1250 Betaplate reader. Nonspecific activity was defined as radioactivity retained on the filters following incubation of samples with buffer alone (no enzyme). […]
(§2) The inhibition activity of the compounds in Examples 7 and 8 were also evaluated using the Dissociated Enhanced Lanthanide Fluoroimmuno Assay (DELFIA) (Frank Loganzo and Carolyn Harady. A sensitive, time-resolved fluorometric assay for the detection of inhibitors of phosphotyrosine kinases. American Biotechnology Laboratory, December 1998). […] One hundred microliter DELFIA Enhancement Solution (EG&G Wallac) was added and time-resolved fluorescence of the reactions determined using a VICTOR2 1420 multilable counter (EG&G Wallac). […]

PDGF = molecular target: T2, PDGF (Mus musculus, UniProt P05622); experiment: PDGF receptor tyrosine kinase inhibition (DELFIA); assay type: biochemical; details: kinase domain at 20 nM
T2 construct: The kinase domains from FGFR-1, VEGFR-2, Lck, and PDGF were purified from baculoviral vectors expression systems; made in house; host or cells: baculovirus expression system (insect cells)
T2 sequence (P05622 599-961 limits assumed): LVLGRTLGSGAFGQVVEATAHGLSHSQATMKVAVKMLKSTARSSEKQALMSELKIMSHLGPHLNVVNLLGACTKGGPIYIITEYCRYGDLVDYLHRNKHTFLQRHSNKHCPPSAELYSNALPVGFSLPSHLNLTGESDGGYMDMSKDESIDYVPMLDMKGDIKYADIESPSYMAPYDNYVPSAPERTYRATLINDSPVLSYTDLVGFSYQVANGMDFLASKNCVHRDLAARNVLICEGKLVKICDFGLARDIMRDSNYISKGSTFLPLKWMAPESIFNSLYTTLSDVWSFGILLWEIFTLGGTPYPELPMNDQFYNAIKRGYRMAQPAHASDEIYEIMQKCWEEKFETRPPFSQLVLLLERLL
Description: as §1, §2

c-Src = molecular target: T3, c-Src (Homo sapiens, UniProt P12931); experiment: c-Src kinase inhibition (DELFIA); assay type: biochemical; details: c-Src at 3 units per reaction
T3 construct: purchased Upstate Biotechnology, Lake Placid, N.Y
T3 sequence (P12931 whole entry, species assumed): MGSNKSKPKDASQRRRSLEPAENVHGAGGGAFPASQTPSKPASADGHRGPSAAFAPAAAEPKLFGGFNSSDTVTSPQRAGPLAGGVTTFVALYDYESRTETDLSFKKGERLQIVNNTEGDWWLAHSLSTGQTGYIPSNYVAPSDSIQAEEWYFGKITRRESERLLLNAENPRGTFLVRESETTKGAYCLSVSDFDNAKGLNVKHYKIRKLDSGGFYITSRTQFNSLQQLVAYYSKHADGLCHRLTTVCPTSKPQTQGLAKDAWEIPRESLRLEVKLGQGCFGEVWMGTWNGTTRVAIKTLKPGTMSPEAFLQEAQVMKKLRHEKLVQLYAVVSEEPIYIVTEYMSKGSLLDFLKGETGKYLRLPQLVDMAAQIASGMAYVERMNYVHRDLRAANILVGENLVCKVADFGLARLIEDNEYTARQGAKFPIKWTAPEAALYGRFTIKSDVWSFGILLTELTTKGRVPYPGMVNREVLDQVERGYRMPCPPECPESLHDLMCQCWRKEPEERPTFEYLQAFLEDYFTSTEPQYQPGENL
Description: c-Src kinase is purified from baculovirus infected insect cell lysates using an antipeptide monoclonal antibody directed against the N-terminal amino acids (amino acids 2-17) of c-Src. The antibody, covalently linked to 0.65 μm latex beads, is added to a suspension of insect cell lysis buffer comprised of 150 mM NaCl, 50 mM Tris pH 7.5, 1 mM DTT, 1% NP-40, 2 mM EGTA, 1 mM sodium vanadate, 1 mM PMSF, 1 μg/mL each of leupeptin, pepstatin, and aprotinin. Insect cell lysate containing c-Src protein is incubated with these beads for 3 to 4 hours at 4° C. with rotation. […] The filters are then punched, counted in a liquid scintillation counter, and the data examined for inhibitory activity in comparison to a known inhibitor such as erbstatin. […]
as §2

VEGFR-2 = molecular target: T4, VEGFR-2 (Homo sapiens, UniProt P35968); experiment: VEGFR-2 tyrosine kinase inhibition (DELFIA); assay type: biochemical; details: kinase domain at 20 nM; read-out: (VEGF-2) (IC50 = μM)
T4 construct: The kinase domains from FGFR-1, VEGFR-2, Lck, and PDGF were purified from baculoviral vectors expression systems; made in house; host or cells: baculovirus expression system (insect cells)
T4 sequence (P35968 834-1162 limits assumed, species assumed): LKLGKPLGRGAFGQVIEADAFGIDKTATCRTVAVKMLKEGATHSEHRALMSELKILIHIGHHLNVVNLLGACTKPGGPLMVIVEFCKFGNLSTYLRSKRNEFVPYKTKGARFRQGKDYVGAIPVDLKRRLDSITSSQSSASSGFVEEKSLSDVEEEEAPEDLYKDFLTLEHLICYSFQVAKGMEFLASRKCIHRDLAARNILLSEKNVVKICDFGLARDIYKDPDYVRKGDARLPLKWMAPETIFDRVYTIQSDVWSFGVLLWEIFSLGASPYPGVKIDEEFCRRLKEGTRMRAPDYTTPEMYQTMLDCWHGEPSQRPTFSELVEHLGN
Description: (§3) The inhibition activity of the compounds in Examples 7 and 8 were also evaluated using the Dissociated Enhanced Lanthanide Fluoroimmuno Assay (DELFIA) (Frank Loganzo and Carolyn Harady. A sensitive, time-resolved fluorometric assay for the detection of inhibitors of phosphotyrosine kinases. American Biotechnology Laboratory, December 1998). DELFIA plates (EG&G Wallac, Gaithersburg, Md.) were coated overnight with Poly Glu Tyr (4:1) (Sigma, St. Louis, Mo.) overnight at room temperature, washed (DELFIA wash reagent, EG&G Wallac), and spotted with 1 μL inhibitor dilution or DMSO carrier control per well. In some cases, kinase was autophosphorylated prior to analysis by incubating 45 minutes at 4° C. in the presence of 4 mM ATP and 25 mM MgCl2. A typical 100 μL kinase assay reaction contained 20 mM Tris (pH 7.5), 20 mM MgCl2, 50 mM NaCl, 5 mM DTT, 200 μM ATP, and protease inhibitors (Mini EDTA-free protease inhibitor cocktail tablets, Boehringer Mannheim, Indianapolis, Ind.), 40 μM ATP, and an appropriate concentration of inhibitor. The reaction was allowed to continue for 30 minutes at room temperature. […] One hundred microliter DELFIA Enhancement Solution (EG&G Wallac) was added and time-resolved fluorescence of the reactions determined using a VICTOR2 1420 multilable counter (EG&G Wallac). […]

Lck = molecular target: T5, Lck (Homo sapiens, UniProt P06239); experiment: Lck kinase inhibition (DELFIA); assay type: biochemical; details: kinase domain at 20 nM
T5 construct: The kinase domains from FGFR-1, VEGFR-2, Lck, and PDGF were purified from baculoviral vectors expression systems; made in house; host or cells: baculovirus expression system (insect cells)
T5 sequence (P06239 245-498 limits assumed, species assumed): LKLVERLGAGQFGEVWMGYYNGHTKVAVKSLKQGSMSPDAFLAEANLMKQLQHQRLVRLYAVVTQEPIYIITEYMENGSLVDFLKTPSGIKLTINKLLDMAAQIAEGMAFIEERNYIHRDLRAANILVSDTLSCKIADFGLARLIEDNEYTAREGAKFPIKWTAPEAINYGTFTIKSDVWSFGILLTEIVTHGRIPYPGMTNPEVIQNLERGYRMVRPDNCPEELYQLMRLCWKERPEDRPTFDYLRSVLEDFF
Description: as §3

Row | IC50 (FGFR-1) [µM] | IC50 (PDGF) [µM] | IC50 (c-Src) [µM] | melting point | IC50 (VEGFR-2) [µM] | Ki (Lck) [µM] | Compound
1 | 6.04 | > 50 | 10.6 | 120 to 121 °C (dec.) |  |  | CCN(CC)CCCCNc1nnc2cc(-c3cc(OC)cc(OC)c3)c(=O)n(CC)c2n1 [Example 7, 3-(4-Diethylamino-butylamino)-7-(3,5-dimethoxy-phenyl)-5-ethyl-5H-pyrido[2,3-e]-1,2,4-triazin-6-one]
2 | 1.22 | > 50 | > 4 |  | 0.35 | > 4 | CCn1c(=O)c(-c2cc(OC)cc(OC)c2)cc2nnc(Nc3ccncc3)nc21 [Example 8, 7-(3,5-Dimethoxy-phenyl)-5-ethyl-3-(pyridin-4-ylamino)-5H-pyrido[2,3-e]-1,2,4-triazin-6-one]
